Measurements as given in patent US20240009191A1, “METHOD AND COMPOSITION FOR THE TREATMENT OF DISEASE” (DIMERIX BIOSCIENCE PTY LTD, priority 2019, published 2024).

Columns and labels:
AT1R = molecular target: T1, AT1R (Homo sapiens, UniProt P30556); test: BRET trafficking of AT1R/Rluc8 to Venus/Kras or Venus/Rab markers, absence of CXCR2; assay type: cell-based; conditions: 100 nM CXCL8, 1 μM AngII
T1 construct: expressed in transfected cells; host or cells: HEK293FT
T1 sequence (P30556 1-359): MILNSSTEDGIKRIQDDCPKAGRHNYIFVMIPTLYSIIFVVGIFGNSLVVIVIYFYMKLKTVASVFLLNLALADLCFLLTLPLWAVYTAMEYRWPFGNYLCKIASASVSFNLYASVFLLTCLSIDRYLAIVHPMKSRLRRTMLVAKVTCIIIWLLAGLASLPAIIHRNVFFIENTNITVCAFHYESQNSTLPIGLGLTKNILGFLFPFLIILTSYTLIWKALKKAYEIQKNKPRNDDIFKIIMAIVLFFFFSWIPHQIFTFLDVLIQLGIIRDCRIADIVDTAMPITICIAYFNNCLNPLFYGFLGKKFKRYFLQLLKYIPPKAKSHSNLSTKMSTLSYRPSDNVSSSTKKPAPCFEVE
Protocol: (§1) HEK293FT cells were seeded in 6-well plates at a density of approximately 700,000 cells/well and maintained at 37° C., 5% CO2 in Complete Media (DMEM containing 0.3 mg/ml glutamine, 100 IU/ml penicillin and 100 μg/ml streptomycin (Gibco/Thermo Fisher)) supplemented with 10% fetal calf serum (FCS; Bovogen). Transient transfections were carried out 24 h after seeding using FuGene6™ (Promega) according to manufacturer instructions. 24 h post-transfection, cells were washed with PBS, detached using 0.05% trypsin/0.53 mM EDTA, resuspended in HEPES-buffered phenol red free Complete Media containing 5% FCS and added to a poly-L-lysine-coated white 96-well microplate (Greiner Bio-One). 48 h post-transfection, bioluminescence resonance energy transfer (BRET) assays were carried out following pre-incubation of cells with EnduRen™ (Promega) at a final concentration of 30 μM, at 37° C., 5% CO2 for 2 h. BRET measurements were taken at 37° C. using the LUMlstar™ or CLARIOstar™ (BMG Labtech). Filtered light emissions were measured for 1 s in each of the ‘donor wavelength window’ (460-490 nm for LUMlstar™ or 410-490 nm for CLARIOstar™) and ‘acceptor wavelength window’ (520-550 nm for LUMlstar™ or 520-620 nm for CLARIOstar™).
(§2) The BRET signal observed between interacting proteins is normalized by subtracting the background BRET ratio. This can be done in one of two ways (see Pfleger et al. (2006) Cell Signal 18:1664-1670; Pfleger et al. (2006) Nat Protoc 1:336-344): 1) the ratio of the 520-550 nm or 520-620 nm emission over the 460-490 nm or 410-490 nm emission for a cell sample containing only the donor construct is subtracted from the same ratio for a sample containing the interacting acceptor and donor fusion proteins; 2) the ratio of the 520-550 nm or 520-620 nm emission over the 460-490 nm or 410-490 nm emission for a cell sample treated with vehicle is subtracted from the same ratio for a second aliquot of the same cell sample treated with ligand. In the following examples, the second calculation will be used and the signal is described as ligand-induced BRET′. Furthermore, for data shown in FIGS. 4 to 20, all data points in a given set are corrected relative to the final data point prior to agonist treatment, which is fixed to zero. In keys on FIGS. 7 to 20, “>” means “followed by after 50 minutes”, with agonists added at time zero on the x-axes.
(§3) Referring now to FIG. 3 (published in Tiulpakov et al (2016) Mol. Endocrinol. 30, 889-904), the proximity of Rluc8-tagged receptors to Venus-tagged Kras plasma membrane marker, or Venus-tagged Rabs specific for distinct subcellular locations, is monitored in live cells and in real-time using BRET. The Rab markers are: Venus/Rab5 (5) for early endosomes; Venus/Rab4 (4) for early endosome recycling; Venus/Rab11a (11) for recycling endosomes; Venus/Rab7 (7) for late endosomes/lysosomes; Venus/Rab9 (9) for late endosome trafficking to the trans-Golgi network; Venus/Rab1 (1) for endoplasmic reticulum trafficking to the cis-Golgi; Venus/Rab6 (6) for Golgi apparatus and trans-Golgi network; or Venus/Rab8 (8) for trans-Golgi network to plasma membrane.

CXCR2 = molecular target: T2, CXCR2 (Homo sapiens, UniProt P25025); test: BRET trafficking of CXCR2/Rluc8 to Venus/Kras or Venus/Rab markers, absence of AT1R; assay type: cell-based; conditions: 100 nM CXCL8, 1 μM AngII
T2 sequence (P25025 1-360): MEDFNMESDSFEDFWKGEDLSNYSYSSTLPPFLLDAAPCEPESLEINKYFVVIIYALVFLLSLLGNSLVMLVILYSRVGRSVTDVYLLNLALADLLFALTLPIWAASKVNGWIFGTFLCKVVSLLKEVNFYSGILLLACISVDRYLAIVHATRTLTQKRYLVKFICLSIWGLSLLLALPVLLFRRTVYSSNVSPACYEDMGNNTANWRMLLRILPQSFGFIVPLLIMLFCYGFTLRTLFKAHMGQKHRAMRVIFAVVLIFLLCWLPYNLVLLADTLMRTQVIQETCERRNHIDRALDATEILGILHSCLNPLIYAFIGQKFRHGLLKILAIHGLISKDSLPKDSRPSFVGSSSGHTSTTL
Protocol: as §1, §2, §3

Angiotensin II [AngII]
proximity of AT1R/Rluc8 to Venus/Rab6 (BRET) (AT1R; Golgi apparatus to trans-Golgi network, FIG. 5I): little effect | proximity of AT1R/Rluc8 to Venus/Rab4 (BRET) (AT1R; early endosome recycling, FIG. 5E): increase | proximity of AT1R/Rluc8 to Venus/Rab5 (BRET) (AT1R; early endosomes, FIG. 5G): substantial increase | proximity of AT1R/Rluc8 to Venus/Rab1 (BRET) (AT1R; endoplasmic reticulum to cis-Golgi, FIG. 5C): increase | proximity of AT1R/Rluc8 to Venus/Rab9 (BRET) (AT1R; late endosome to trans-Golgi network, FIG. 5O): increase | proximity of AT1R/Rluc8 to Venus/Rab7 (BRET) (AT1R; late endosomes/lysosomes, FIG. 5K): increase | proximity of AT1R/Rluc8 to Venus/Kras (BRET) (AT1R; plasma membrane marker, FIG. 5A): marked reduction | proximity of AT1R/Rluc8 to Venus/Rab11a (BRET) (AT1R; recycling endosomes, FIG. 5Q): substantial increase | proximity of AT1R/Rluc8 to Venus/Rab8 (BRET) (AT1R; trans-Golgi network to plasma membrane, FIG. 5M): small increase at later time-points | proximity of CXCR2/Rluc8 to Venus/Rab6 (BRET) (CXCR2; Golgi apparatus to trans-Golgi network, FIG. 4I): no effect | proximity of CXCR2/Rluc8 to Venus/Rab4 (BRET) (CXCR2; early endosome recycling, FIG. 4E): no effect | proximity of CXCR2/Rluc8 to Venus/Rab5 (BRET) (CXCR2; early endosomes, FIG. 4G): no effect | proximity of CXCR2/Rluc8 to Venus/Rab1 (BRET) (CXCR2; endoplasmic reticulum to cis-Golgi, FIG. 4C): no effect | proximity of CXCR2/Rluc8 to Venus/Rab9 (BRET) (CXCR2; late endosome to trans-Golgi network, FIG. 4O): no effect | proximity of CXCR2/Rluc8 to Venus/Rab7 (BRET) (CXCR2; late endosomes/lysosomes, FIG. 4K): no effect | proximity of CXCR2/Rluc8 to Venus/Kras (BRET) (CXCR2; plasma membrane marker, FIG. 4A): no effect | proximity of CXCR2/Rluc8 to Venus/Rab11a (BRET) (CXCR2; recycling endosomes, FIG. 4Q): no effect | proximity of CXCR2/Rluc8 to Venus/Rab8 (BRET) (CXCR2; trans-Golgi network to plasma membrane, FIG. 4M): no effect
